From US20150105252A1, “SUBSTITUTED PYRAZOLES AS HERBICIDES” (E I DU PONT DE NEMOURS AND COMPANY, priority 2013, published 2015)

Experiments:
[1] = system: barnyardgrass; assay: Test A preemergence; format: in vivo, Echinochloa crus-galli; details: 0 to 100 scale
From the text: (§1) Seeds of plant species selected from barnyardgrass (Echinochloa crus-galli), kochia (Kochia scoparia), common ragweed (Ambrosia elation), Italian ryegrass (Lolium multiflorum), crabgrass, large (large crabgrass, Digitaria sanguinalis), foxtail, giant (giant foxtail, Setaria faberii), morningglory (Ipomoea spp.), pigweed (redroot pigweed, Amaranthus retroflexus), velvetleaf (Abutilon theophrasti), wheat (Triticum aestivum), and corn (Zea mays) were planted into a blend of loam soil and sand and treated preemergence with a directed soil spray using test chemicals formulated in a non-phytotoxic solvent mixture which included a surfactant.
(§2) At the same time, plants selected from these crop and weed species and also blackgrass (Alopecurus myosuroides), and galium (catchweed bedstraw, Galium aparine) were planted in pots containing the same blend of loam soil and sand and treated with postemergence applications of test chemicals formulated in the same manner. Plants ranged in height from 2 to 10 cm and were in the one- to two-leaf stage for the postemergence treatment. Treated plants and untreated controls were maintained in a greenhouse for approximately 10 days, after which time all treated plants were compared to untreated controls and visually evaluated for injury. Plant response ratings, summarized in Table A, are based on a 0 to 100 scale where 0 is no effect and 100 is complete control. A dash (-) response means no test result.

[2] = system: crabgrass, large; assay: Test A preemergence; format: in vivo, Digitaria sanguinalis; details: Preemergence, 1000 g ai/ha; 0 to 100 scale, 0 no effect, 100 complete control
From the text: as §1, §2

[3] = system: foxtail, giant; assay: Test A preemergence; format: in vivo, Setaria faberii; details: Preemergence, 0 to 100 scale, 0 no effect, 100 complete control
From the text: as §1, §2

[4] = system: morningglory; assay: Test A preemergence; format: in vivo, Ipomoea spp.; details: 0 to 100 scale
From the text: as §1, §2

[5] = system: pigweed; assay: Test A preemergence; format: in vivo, Amaranthus retroflexus; details: Preemergence, 0 to 100 scale, 0 no effect, 100 complete control
From the text: as §1, §2

[6] = system: velvetleaf; assay: Test A preemergence; format: in vivo, Abutilon theophrasti; details: Preemergence, 0 to 100 scale, 0 no effect, 100 complete control
From the text: as §1, §2

[7] = system: wheat; assay: Test A preemergence; format: in vivo, Triticum aestivum
From the text: as §1, §2

[8] = system: corn; assay: Test A preemergence; format: in vivo, Zea mays; details: 0 to 100 scale
From the text: as §1, §2

[9] = system: barnyardgrass; assay: Test A postemergence; format: in vivo, Echinochloa crus-galli; details: Postemergence
From the text: as §1, §2

[10] = system: crabgrass, large; assay: Test A postemergence; format: in vivo, Digitaria sanguinalis
From the text: as §1, §2

[11] = system: foxtail, giant; assay: Test A postemergence; format: in vivo, Setaria faberii
From the text: as §1, §2

[12] = system: morningglory; assay: Test A postemergence; format: in vivo, Ipomoea spp.
From the text: as §1, §2

[13] = system: pigweed; assay: Test A postemergence; format: in vivo, Amaranthus retroflexus
From the text: as §1, §2

[14] = system: velvetleaf; assay: Test A postemergence; format: in vivo, Abutilon theophrasti
From the text: as §1, §2

[15] = system: wheat; assay: Test A postemergence; format: in vivo, Triticum aestivum
From the text: as §1, §2

[16] = system: corn; assay: Test A postemergence; format: in vivo, Zea mays
From the text: as §1, §2

[17] = Preemergence, 1000 g ai/ha, 0 no effect, 100 complete control
[18] = Preemergence, 1000 g ai/ha, 0 to 100 scale, 0 no effect, 100 complete control
[19] = 1000 g ai/ha, visual rating after approx. 10 days, 0 to 100 scale (0 no effect, 100 complete control)
[20] = Postemergence, 1000 g ai/ha, visual rating after approx. 10 days, 0 to 100 scale (0 no effect, 100 complete control)
[21] = Preemergence, 500 g ai/ha, 0 no effect, 100 complete control
[22] = preemergence, 125 g ai/ha, visual injury, approx. 10 days
[23] = Postemergence, 500 g ai/ha, visual rating after approx. 10 days, 0 to 100 scale (0 no effect, 100 complete control)
[24] = postemergence, 125 g ai/ha, about 10 days, visual rating on 0 to 100 scale (0 no effect, 100 complete control)

With `CCc1cc(C(=O)N(C)C)nn1Cc1cccc(OC(F)(F)F)c1` [Compound 56] the “Barnyardgrass plant response rating” value [1, 17] was 0, the “Crabgrass, Large plant response rating” value [2] was 0 and the “Foxtail, Giant plant response rating” value ([3]; 1000 g ai/ha) was 10. The “Morningglory plant response rating” value [4, 17] was 0, the “Pigweed plant response rating” value ([5]; 1000 g ai/ha) was 0 and the “Velvetleaf plant response rating” value ([6]; 1000 g ai/ha) was 0. For the same compound, the “Wheat plant response rating” value [7, 18] was 0, the “Corn plant response rating” value [8, 17] was 0 and the “Barnyardgrass plant response rating” value [9, 19] was 0. For the same compound, the “Crabgrass, Large plant response rating” value [10, 20] was 10, the “Foxtail, Giant plant response rating” value [11, 20] was 20 and the “Morningglory plant response rating” value [12, 20] was 70. The “Pigweed plant response rating” value [13, 20] was 60, the “Velvetleaf plant response rating” value [14, 20] was 10 and the “Wheat plant response rating” value [15, 20] was 0. The “Corn plant response rating” value [16, 20] was 10.
With `CCCCNC(=O)c1cc(CC)n(Cc2cccc(OC(F)(F)F)c2)n1` [Compound 62] the “Barnyardgrass plant response rating” value [1, 17] was 10, the “Crabgrass, Large plant response rating” value [2] was 40 and the “Foxtail, Giant plant response rating” value ([3]; 1000 g ai/ha) was 60. The “Morningglory plant response rating” value [4, 17] was 20, the “Pigweed plant response rating” value ([5]; 1000 g ai/ha) was 20 and the “Velvetleaf plant response rating” value ([6]; 1000 g ai/ha) was 10. For the same compound, the “Wheat plant response rating” value [7, 18] was 0, the “Wheat plant response rating” value ([7]; preemergence, 500 g ai/ha, visual injury after approx. 10 days, 0 to 100 scale (0 no effect, 100 complete control)) was 0 and the “Corn plant response rating” value [8, 17] was 0. The “Barnyardgrass plant response rating” value [9, 19] was 10, the “Crabgrass, Large plant response rating” value [10, 20] was 20 and the “Foxtail, Giant plant response rating” value [11, 20] was 30. For the same compound, the “Morningglory plant response rating” value [12, 20] was 80, the “Pigweed plant response rating” value [13, 20] was 70 and the “Velvetleaf plant response rating” value [14, 20] was 70. The “Wheat plant response rating” value [15, 20] was 20 and the “Corn plant response rating” value [16, 20] was 50.
With `CSc1cc(C(=O)NC2CC2)nn1Cc1cccc(C(F)(F)F)c1` [Compound 22] the “Barnyardgrass plant response rating” value [1, 17] was 0, the “Crabgrass, Large plant response rating” value [2] was 10 and the “Foxtail, Giant plant response rating” value ([3]; 1000 g ai/ha) was 20. For the same compound, the “Morningglory plant response rating” value [4, 17] was 0, the “Pigweed plant response rating” value ([5]; 1000 g ai/ha) was 0 and the “Velvetleaf plant response rating” value ([6]; 1000 g ai/ha) was 0. The “Wheat plant response rating” value [7, 18] was 0, the “Corn plant response rating” value [8, 17] was 0 and the “Barnyardgrass plant response rating” value [9, 19] was 30. For the same compound, the “Crabgrass, Large plant response rating” value [10, 20] was 50, the “Foxtail, Giant plant response rating” value [11, 20] was 40 and the “Morningglory plant response rating” value [12, 20] was 100. For the same compound, the “Pigweed plant response rating” value [13, 20] was 60, the “Velvetleaf plant response rating” value [14, 20] was 80 and the “Wheat plant response rating” value [15, 20] was 20. The “Corn plant response rating” value [16, 20] was 10.
`CCc1cc(C(=O)NCCC(F)(F)F)nn1Cc1cccc(C(F)(F)F)c1` [Compound 51] was tested, and the “Barnyardgrass plant response rating” value [1, 17] was 10, the “Crabgrass, Large plant response rating” value [2] was 20 and the “Foxtail, Giant plant response rating” value ([3]; 1000 g ai/ha) was 80. The “Morningglory plant response rating” value [4, 17] was 10, the “Pigweed plant response rating” value ([5]; 1000 g ai/ha) was 10 and the “Velvetleaf plant response rating” value ([6]; 1000 g ai/ha) was 0. For the same compound, the “Wheat plant response rating” value [7, 18] was 0, the “Barnyardgrass plant response rating” value [9, 19] was 10 and the “Crabgrass, Large plant response rating” value [10, 20] was 30. The “Foxtail, Giant plant response rating” value [11, 20] was 10, the “Morningglory plant response rating” value [12, 20] was 100 and the “Pigweed plant response rating” value [13, 20] was 50. For the same compound, the “Velvetleaf plant response rating” value [14, 20] was 100, the “Wheat plant response rating” value [15, 20] was 20 and the “Corn plant response rating” value [16, 20] was 10.
`Cc1cc(C(=O)NC2CC2)nn1Cc1cccc(OC(F)(F)F)c1` [Compound 21] was tested, and the “Barnyardgrass plant response rating” value [1, 21] was 90, the “Barnyardgrass plant response rating” value [1, 22] was 0 and the “Foxtail, Giant plant response rating” value ([3]; 500 g ai/ha) was 100. For the same compound, the “Morningglory plant response rating” value [4, 21] was 40, the “Morningglory plant response rating” value [4, 22] was 0 and the “Pigweed plant response rating” value ([5]; 500 g ai/ha) was 100. For the same compound, the “Velvetleaf plant response rating” value ([6]; 500 g ai/ha) was 50, the “Wheat plant response rating” value ([7]; preemergence, 125 g ai/ha, visual injury, 0 to 100 scale, approx. 10 days) was 0 and the “Corn plant response rating” value [8, 22] was 0. For the same compound, the “Barnyardgrass plant response rating” value ([9]; 125 g ai/ha, 0 to 100 scale, 0 no effect, 100 complete control) was 0, the “Barnyardgrass plant response rating” value ([9]; 500 g ai/ha, visual rating after approx. 10 days, 0 to 100 scale (0 no effect, 100 complete control)) was 60 and the “Crabgrass, Large plant response rating” value [10, 23] was 80. The “Crabgrass, Large plant response rating” value [10, 24] was 30, the “Foxtail, Giant plant response rating” value [11, 23] was 50 and the “Foxtail, Giant plant response rating” value [11, 24] was 20. For the same compound, the “Morningglory plant response rating” value [12, 23] was 90, the “Morningglory plant response rating” value [12, 24] was 80 and the “Pigweed plant response rating” value [13, 23] was 100. For the same compound, the “Pigweed plant response rating” value [13, 24] was 90, the “Velvetleaf plant response rating” value [14, 23] was 40 and the “Velvetleaf plant response rating” value [14, 24] was 0. For the same compound, the “Wheat plant response rating” value [15, 23] was 10, the “Wheat plant response rating” value [15, 24] was 0 and the “Corn plant response rating” value [16, 23] was 50. The “Corn plant response rating” value [16, 24] was 10.
